Source: patent US10520504B2, “Fluorescent polybranched probes for detecting bacteria and/or fungi in vitro and in vivo” (priority 2014, dated 2019)
Entries after “also recorded” stand apart in the source; their conditions may differ. Numbered stars: 1 amine (or outer) side, 2 acyl side, 3 side chain; on linkers, the order of the positions; unused ones are H or OH. Bridge positions count the residues as written; N and C are the ends. Square brackets hold non-standard residues; d marks the D form. Ends that are not written are not given here. Peptide text beside a SMILES is read from it. I, II: the chains in the order shown. * marks the point of attachment. ξ: configuration not given here. X2 = CN(C)c1ccc2c(c1)Oc1cc(N(C)C)ccc1C21OC(=O)c2ccc(C(=O)*)cc21; X1 = NC(=O)NC(COCCCN[*:1])(COCCCN[*:2])COCCCN[*:3]; NBD = O=[N+]([O-])c1ccc(*)c2nonc12; dDab = NCC[C@@H](N)C(=O)O; Nle = CCCC[C@H](N)C(=O)O; Dab = NCC[C@H](N)C(=O)O; AEEA = NCCOCCOCC(=O)O; ξDab = NCCC(N)C(=O)O; ξK = NCCCCC(N)C(=O)O; ξV = CC(C)C(N)C(=O)O; Ahx = NCCCCCC(=O)O; ξP = O=C(O)C1CCCN1; ξA = CC(N)C(=O)O

Legend:
[1] = Stability in saline or ALI BALF by MALDI-TOF MS / FTMS; settings: incubated 30 minutes
Procedure: Secondly we assessed stability of the probes in BALF from patients with ALI by FTMS and MALDI-TOF MS analysis. NBD-UBINle, NBD-UBIdend and NBD-PMX were incubated for 30 minutes with BALF (FIG. 13).
In vitro labelling was assessed on benchtop confocal in the presence of compound with bacteria and labelling was compared to NBD-UBINle which served as a reference control for bacterial labelling. […] For the ex vivo and in vivo ovine lung experiments each compound was assessed in a control lung segment (instilled with 2 ml PBS) or a bacterial segment (instilled with 2 ml of 2 optical density of bacteria). Following bacterial instillation, the compound was administered to the segment of interest and this was imaged by probe based FCFM.
Probe was added to saline or pooled BALF from patients with ALI incubated for 30 minutes. A ZipTip (C-18, 0.2 μL) with 5 μL MeCN (with 0.1% TFA as an additive) followed by 20 μL of H2O was washed. The ZipTip was loaded with the sample, washed and eluted into 5 μL of 80% aq. MeCN (with 0.1% TFA as an additive). The sample was analysed by MALDI-TOF (PerSeptive Biosystems Voyager DE™STR MALDI-TOF mass spectrometer (Applied Biosystems, Foster City, Calif.)).

[2] = molecular target: T1, human neutrophil elastase (HNE) (Homo sapiens, UniProt P08246); assay: Elastase dependent bacterial labelling in co-culture of bacteria and neutrophils; format: cell-based; settings: for labelling of activated neutrophils: TAMRA signal; for elastase dependent bacterial labelling: bacteria with neutrophils
T1 construct: endogenous in cells; host or cells: isolated human neutrophils (co-culture with MSSA or P. aeruginosa)
T1 sequence (P08246 30-267): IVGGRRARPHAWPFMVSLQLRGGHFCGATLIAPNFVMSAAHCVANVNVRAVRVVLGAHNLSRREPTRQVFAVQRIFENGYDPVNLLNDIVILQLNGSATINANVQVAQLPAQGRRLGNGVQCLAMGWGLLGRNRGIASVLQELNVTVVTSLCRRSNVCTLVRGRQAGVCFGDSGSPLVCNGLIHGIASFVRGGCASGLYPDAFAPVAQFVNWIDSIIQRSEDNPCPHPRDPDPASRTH
Text: A first example of elastase sensitive probes (shown schematically in FIG. 16A) comprises methyl red (acting as a dark quencher) connected via the peptide sequence AAPV (SEQ. ID NO: 9). (acting as the enzyme cleavable peptide sequence of the cleavable linker) to 7-nitrobenz-2-oxa-1,3-diazole (NBD) and the ubiquicidin fragment UBI29-41 (together acting as the probe element). Accordingly, the NBD fluorescence is quenched by the methyl red and no fluorescent signal will be observed (i.e. the methyl red and NBD are acting as a FRET pair) and therefore, whether or not the probe is bound to any bacteria that may be present in the target area via UBI29-41, no signal is observed using confocal microscopy.
When the probe is in the presence of human neutrophil elastase (HNE), such as in inflamed tissue, HNE cleaves the peptide sequence of the linker, to thereby free the probe element from the methyl red quencher. Accordingly, the NBD fluorophore is no longer quenched and produces a fluorescent signal. In addition, due to the environmental sensitivity of the NBD, the signal produced is greatly amplified if the NBD is in a hydrophobic environment, such as within a cell membrane.

elastase = elastase (Homo sapiens, UniProt P08246); settings: ex 525 nm, Em 580 nm

Molecule: CCCC[C@H](NC(=O)[C@H](CCCNC(=N)N)NC(=O)[C@H](CCCNC(=N)N)NC(=O)[C@H](CCCCN)NC(=O)[C@H](C)NC(=O)[C@H](CCCNC(=N)N)NC(=O)CNC(=O)[C@@H](NC(=O)CCCCCNc1ccc([N+](=O)[O-])c2nonc12)[C@@H](C)O)C(=O)N[C@@H](CCC(N)=O)C(=O)N[C@@H](Cc1ccc(O)cc1)C(=O)N[C@@H](CC(N)=O)C(=O)N[C@@H](CCCNC(=N)N)C(=O)N[C@@H](CCCNC(=N)N)C(N)=O [NBD-UBINle] ({NBD-Ahx}-TGRAKRR[Nle]QYNRR-NH2; N-terminus and C-terminus assumed)
- stability in BALF from patients with ALI [1]: degradation; also recorded: instability in lavage fluid

Molecule: CC(C)C[C@H]1NC(=O)[C@@H](Cc2ccccc2)NC(=O)[C@@H](CCN)NC(=O)C(NC(=O)[C@H](CCN)NC(=O)[C@@H](NC(=O)COCCOCCNC(=O)C(CCCCNc2ccc([N+](=O)[O-])c3nonc23)NC(=O)C(NC(=O)C2CCCN2C(=O)C(C)NC(=O)C(C)NC(=O)c2ccc3c(c2)C2(OC3=O)c3ccc(N(C)C)cc3Oc3cc(N(C)C)ccc32)C(C)C)[C@@H](C)O)CCNC(=O)[C@@H]([C@H](C)O)NC(=O)[C@H](CCN)NC(=O)[C@H](CCN)NC1=O (stereo partly drawn) [TAMRA-AAPV-NBD-PMX] (X2-[ξA][ξA][ξP][ξV][ξK](NBD)[AEEA]T[Dab][ξDab][dDab][dF][dL][Dab][Dab][dT]; lactam 9-C)
- bacterial labelling with unactivated neutrophils ([2]; P. aeruginosa): no labelling in the presence of unactivated neutrophils
- labelling of activated neutrophils [2]: labelling of activated neutrophils in an elastase independent manner
- labelling of activated neutrophils ([2]; listed as Example 2): labelled by the TAMRA moiety
- elastase dependent bacterial labelling [2]: bacterial labelling in an elastase dependent manner
- elastase dependent bacterial labelling ([2]; listed as Example 2): the bacteria are labelled by the probe element
- TAMRA fluorescence increase with elastase inhibitor (elastase): inhibited with an elastase inhibitor
- fluorescence of TAMRA following cleavage (elastase; elastase): increase in fluorescence

Molecule: Example 1: methyl red dark quencher connected via AAPV to NBD and ubiquicidin fragment UBI29-41 (also: methyl red quencher attached, side not given here, NBD and ubiquicidin fragment UBI29-41 attached, side not given here)
- elastase dependent bacterial labelling [2]: cleaved by neutrophil derived HNE and to label bacteria
- bacterial labelling with elastase inhibitor ([2]; sivelestat added to the medium): no labelling was observed

Molecule: I: {NBD-AEEA}-TGRAKRR[Nle]QYNRR[AEEA] / II: {NBD-AEEA}-TGRAKRR[Nle]QYNRR[AEEA] / III: {NBD-AEEA}-TGRAKRR[Nle]QYNRR[AEEA] (linker I:C-II:C-III:C via X1) [NBD-UBIdend]
- stability in BALF from patients with ALI [1]: remains stable; also recorded: demonstrate stability
